Assay results taken from PMC6792352, “Limited Chemical Structural Diversity Found to Modulate Thyroid Hormone Receptor in the Tox21 Chemical Library” (Environmental Health Perspectives, 2019).
Counter-ions that a name gives are not always drawn.

Assay: in vitro
Settings: rat, gh3-tre-luc cells

Row | Structure (SMILES) | CC50 at 24 h (AC50 (uM) modified / 1000) [µM] | also measured
1 | CN(C)C(=O)Nc1cccc(OC(=O)NC(C)(C)C)c1 [Karbutilate] | – | CC50 at 24 h (AC50 (uM) modified / 1000, Tox21_110001=Tox21_301748, viability, 1 nM T3 present, 24 h): > 90 µM
2 | C[C@H]1O[C@H](O[C@H]2[C@H](O)[C@@H](O)[C@@H](O)[C@H](O)[C@@H]2O)[C@@H](N)C[C@@H]1NC(=N)C(=O)O [Kasugamycin hydrochloride] | > 90 | –
3 | COC1=CC(=O)O[C@@H](/C=C/c2ccccc2)C1 [Kavain] | – | CC50 at 24 h (AC50 (uM) modified / 1000, Tox21_110001=Tox21_200907, viability, 1 nM T3 present, 24 h): > 90 µM
4 | O=C1C2(Cl)C3(Cl)C4(Cl)C(Cl)(Cl)C5(Cl)C3(Cl)C1(Cl)C5(Cl)C24Cl (stereo not drawn) [Kepone] | – | CC50 at 24 h (AC50 (uM) modified / 1000, Tox21_110001=Tox21_201592, viability, 1 nM T3 present, 24 h): 11.6 µM; CC50 at 24 h (AC50 (uM) modified / 1000, Tox21_110001=Tox21_300098, viability, 1 nM T3 present, 24 h): 10.7 µM
5 | CNC1(c2ccccc2Cl)CCCCC1=O (stereo not drawn) [Ketamine] | > 50 | –
6 | O=C(c1ccc(F)cc1)C1CCN(CCn2c(=O)[nH]c3ccccc3c2=O)CC1 [Ketanserin] | > 50 | –
7 | CC(C(=O)O)c1cccc(C(=O)c2ccccc2)c1 (stereo not drawn) [Ketoprofen] | > 90 | –
8 | CN1CCC(=C2c3ccccc3CC(=O)c3sccc32)CC1 [Ketotifen] | 16 | –
9 | COc1c2occc2c(OC)c2c(=O)cc(C)oc12 [Khellin] | > 20 | –
10 | c1coc(CNc2ncnc3[nH]cnc23)c1 [Kinetin] | > 90 | –
11 | C#CCOC(=O)/C=C(C)/C=C/CC(C)CCCC(C)C (stereo not drawn) [Kinoprene] | – | CC50 at 24 h (AC50 (uM) modified / 1000, Tox21_110001=Tox21_302008, viability, 1 nM T3 present, 24 h): > 90 µM
12 | O=c1cc(CO)occ1O [Kojic acid] | > 50 | –
13 | CO/N=C(/C(=O)OC)c1ccccc1COc1ccccc1C [Kresoxim-methyl] | > 90 | –
14 | c1cncc([C@@H]2CCCCN2)c1 [L-3-(2'-Piperidyl)pyridine] | > 90 | –
15 | N[C@@H](Cc1c[nH]c2ccc(O)cc12)C(=O)O [L-5-Hydroxytryptophan] | > 90 | –
16 | O=C(CO)[C@@H](O)[C@H](O)[C@@H](O)CO [L-(-)-Sorbose] | > 50 | –
17 | CC[C@@H](C)[C@H](N)C(=O)O [L-Alloisoleucine] | > 50 | –
18 | N=C(N)NCCC[C@H](N)C(=O)O [L-Arginine] | > 50 | –
19 | O=C1O[C@H]([C@@H](O)CO)C(O)=C1O [L-Ascorbic acid] | > 90 | –
20 | O=C(/C=C/c1ccc(O)c(O)c1)O[C@@H](C(=O)O)[C@@H](OC(=O)/C=C/c1ccc(O)c(O)c1)C(=O)O [L-Cichoric acid] | > 90 | –
21 | N[C@@H](CSSC[C@H](N)C(=O)O)C(=O)O [L-Cystine] | > 50 | –
22 | N[C@@H](Cc1ccc(O)c(O)c1)C(=O)O [L-Dopa] | > 50 | –
23 | OC[C@@H](O)[C@H](O)[C@@H](O)[C@@H](O)CO [L-Glucitol] | > 90 | –
24 | N[C@@H](CCC(=O)O)C(=O)O [L-Glutamic acid hydrochloride] | > 90 | –

Row | Structure (SMILES) | CC50 at 24 h (AC50 (uM) modified / 1000) [µM] | also measured
25 | N[C@@H](Cc1c[nH]cn1)C(=O)O [L-Histidine hydrochloride] | > 50 | –
26 | COC(=O)[C@@H](N)CCCNC(=N)N[N+](=O)[O-] [L-Nitroarginine methyl ester] | > 50 | –
27 | O=C(O)[C@H](O)[C@@H](O)C(=O)O [L-Tartaric acid] | > 90 | –
28 | O=C(O)[C@@H]1CSCN1 [L-Thioproline] | > 50 | –
29 | C[C@@H](O)[C@H](N)C(=O)O [L-Threonine] | > 50 | –
30 | N[C@@H](Cc1ccc(O)cc1)C(=O)O [L-Tyrosine] | > 50 | –
31 | CC1=CC(=O)[C@H]2C[C@@H]1C2(C)C [L-Verbenone] | > 90 | –
32 | CC[C@H](OC(C)=O)C(C[C@H](C)NC)(c1ccccc1)c1ccccc1 [L-alpha-Acetyl-N-normethadol hydrochloride] | – | CC50 at 24 h (AC50 (uM) modified / 1000, Tox21_110001=Tox21_112831, viability, 1 nM T3 present, 24 h): 17.4 µM
33 | CCOC(=O)C1=C(C)NC(C)=C(C(=O)OCC)C1c1ccccc1/C=C/C(=O)OC(C)(C)C [Lacidipine] | 11.2 | –
34 | O=C(O)[C@H](O)[C@@H](O)[C@H](O[C@@H]1O[C@H](CO)[C@H](O)[C@H](O)[C@H]1O)[C@H](O)CO [Lactobionic acid] | > 20 | –
35 | CCOC(=O)C(C)OC(=O)c1cc(Oc2ccc(C(F)(F)F)cc2Cl)ccc1[N+](=O)[O-] (stereo not drawn) [Lactofen] | > 90 | –
36 | OC[C@H]1O[C@@H](O[C@H]2[C@H](O)[C@@H](O)C(O)O[C@@H]2CO)[C@H](O)[C@@H](O)[C@H]1O (stereo partly drawn) [Lactose] | > 90 | –
37 | O=C(C[S+]([O-])Cc1ccco1)NC/C=C\COc1cc(CN2CCCCC2)ccn1 (stereo not drawn) [Lafutidine] | > 50 | –
38 | Nc1ccn([C@@H]2CS[C@H](CO)O2)c(=O)n1 [Lamivudine] | > 90 | –
39 | Nc1nnc(-c2cccc(Cl)c2Cl)c(N)n1 [Lamotrigine] | > 50 | –
40 | CC(=O)O[C@H]1C[C@H](O[C@H]2[C@@H](O)C[C@H](O[C@H]3[C@@H](O)C[C@H](O[C@H]4CC[C@@]5(C)[C@H](CC[C@@H]6[C@@H]5CC[C@]5(C)[C@@H](C7=CC(=O)OC7)CC[C@]65O)C4)O[C@@H]3C)O[C@@H]2C)O[C@H](C)[C@H]1O[C@@H]1O[C@H](CO)[C@@H](O)[C@H](O)[C@H]1O [Lanatoside A] | > 50 | –
41 | CC(=O)O[C@H]1C[C@H](O[C@H]2[C@@H](O)C[C@H](O[C@H]3[C@@H](O)C[C@H](O[C@H]4CC[C@@]5(C)[C@H](CC[C@@H]6[C@@H]5CC[C@]5(C)[C@@H](C7=CC(=O)OC7)[C@@H](O)C[C@]65O)C4)O[C@@H]3C)O[C@@H]2C)O[C@H](C)[C@H]1O[C@@H]1O[C@H](CO)[C@@H](O)[C@H](O)[C@H]1O [Lanatoside B] | > 50 | –
42 | CC(=O)O[C@H]1C[C@H](O[C@H]2[C@@H](O)C[C@H](O[C@H]3[C@@H](O)C[C@H](O[C@H]4CC[C@@]5(C)[C@H](CC[C@@H]6[C@@H]5C[C@@H](O)[C@]5(C)[C@@H](C7=CC(=O)OC7)CC[C@]65O)C4)O[C@@H]3C)O[C@@H]2C)O[C@H](C)[C@H]1O[C@@H]1O[C@H](CO)[C@@H](O)[C@H](O)[C@H]1O [Lanatoside C] | > 50 | –
43 | CC1(C)OC[C@@H](COC(=O)CCc2ccc(OC[C@@H](O)CNCCNC(=O)N3CCOCC3)cc2)O1 [Landiolol hydrochloride] | > 50 | –
44 | N#C/C(=C1/SCC(c2ccccc2Cl)S1)n1ccnc1 (stereo not drawn) [Lanoconazole] | > 50 | –
45 | C[C@H](CN1CCCC1)C(=O)c1ccc(C(F)(F)F)cc1 [Lanperisone hydrochloride] | > 50 | –
46 | Cc1c(OCC(F)(F)F)ccnc1C[S+]([O-])c1nc2ccccc2[nH]1 (stereo not drawn) [Lansoprazole] | > 90 | –
47 | CC(C)=CCC1=C(O)C(=O)c2ccccc2C1=O [Lapachol] | 10.7 | –
48 | CS(=O)(=O)CCNCc1ccc(-c2ccc3ncnc(Nc4ccc(OCc5cccc(F)c5)c(Cl)c4)c3c2)o1 [Lapatinib] | > 50 | –

Row | Structure (SMILES) | CC50 at 24 h (AC50 (uM) modified / 1000) [µM] | also measured
49 | CC[C@@H](C(=O)[C@@H](C)[C@@H](O)[C@H](C)CCc1ccc(C)c(O)c1C(=O)O)[C@H]1O[C@](CC)([C@H]2CC[C@](O)(CC)[C@H](C)O2)C[C@@H]1C [Lasalocid sodium] | 2.85 | –
50 | CCCCCCCCCCCCSCCOCCOCCOCCOCCOCCOCCOCCOCCOCCO [Laureth 10s] | > 50 | –
51 | CCCCCCCCCCCCOCCCN [Laurixamine] | > 50 | –
52 | CCCCCCCCCCCCN1CCCCCC1=O [Laurocapram] | 45.3 | –
53 | CCCCCCCCCCCCSC#N [Lauryl thiocyanate] | > 90 | –
54 | CCCCCCCCCCCCN(CCO)CCO [Lauryldiethanolamine] | 14.8 | –
55 | NCCNC(=O)c1ccc(Cl)cn1 [Lazabemide hydrochloride] | > 50 | –
56 | COC(=O)C1=C(C)NC(COC(N)=O)=C(C(=O)OC(C)C)C1c1cccc(Cl)c1Cl (stereo not drawn) [Lemildipine] | 25.8 | –
57 | Nc1cccc2c1CN(C1CCC(=O)NC1=O)C2=O (stereo not drawn) [Lenalidomide] | > 50 | –
58 | O=C(CCCN1CCC(C(=O)c2ccc(F)cc2)CC1)c1ccc(F)cc1 [Lenperone] | > 50 | –
59 | Cc1ccnc2ccccc12 [Lepidine] | > 90 | –
60 | COP(=S)(Oc1cc(Cl)c(Br)cc1Cl)c1ccccc1 (stereo not drawn) [Leptophos] | – | CC50 at 24 h (AC50 (uM) modified / 1000, Tox21_110001=Tox21_301903, viability, 1 nM T3 present, 24 h): 72.3 µM
61 | C[C@]12O[C@H](C[C@]1(O)CO)n1c3ccccc3c3c4c(c5c6ccccc6n2c5c31)CNC4=O [Lestaurtinib] | 0.226 | –
62 | CN(C)c1ccc(C(c2ccccc2)c2ccc(N(C)C)cc2)cc1 [Leucomalachite green] | – | CC50 at 24 h (AC50 (uM) modified / 1000, Tox21_110001=Tox21_302103, viability, 1 nM T3 present, 24 h): > 90 µM
63 | CCNC(=O)[C@@H]1CCCN1C(=O)[C@H](CCCNC(=N)N)NC(=O)[C@H](CC(C)C)NC(=O)[C@@H](CC(C)C)NC(=O)[C@H](Cc1ccc(O)cc1)NC(=O)[C@H](CO)NC(=O)[C@H](Cc1c[nH]c2ccccc12)NC(=O)[C@H](Cc1c[nH]cn1)NC(=O)[C@@H]1CCC(=O)N1 [Leuprolide acetate salt] | > 50 | –
64 | C=CCN1CC[C@]23CCCC[C@H]2[C@H]1Cc1ccc(O)cc13 [Levallorphan] | 28.6 | –
65 | c1ccc([C@H]2CN3CCSC3=N2)cc1 [Levamisole hydrochloride] | > 50 | –
66 | CC1(C)Oc2ccc(C#N)cc2[C@@H](N2CCCC2=O)[C@@H]1O [Levcromakalim] | > 50 | –
67 | CC(C)(C)NC[C@H](O)COc1cccc2c1CCCC2=O [Levobunolol hydrochloride] | > 20 | –
68 | CCCCN1CCCC[C@H]1C(=O)Nc1c(C)cccc1C [Levobupivacaine hydrochloride] | > 50 | –
69 | C[C@@H]1CN([C@H]2CC[C@](C#N)(c3ccc(F)cc3)CC2)CC[C@]1(C(=O)O)c1ccccc1 [Levocabastine hydrochloride] | > 20 | –
70 | CC(C)=CCC[C@](C)(O)[C@@H]1CC=C(C)CC1 [Levomenol] | > 90 | –
71 | c1ccc2c(c1)Sc1ccccc1N2C[C@@H]1CN2CCC1CC2 [Levomequitazine] | > 50 | –
